Assay results taken from patent US10507207B2, “Non-nucleosidic inhibitors of reverse transcriptase as antagonists of cell proliferation and inducers of cell differentiation” (ISTITUTO SUPERIORE DI SANITA, priority 2001, dated 2019).

Experiments:
[1] = system: Kasumi-1 cells; assay: Growth, viable cell count; assay type: cell-based, human; settings: Kasumi-1, Nev 350 μM, 4 days
[2] = system: HL60 cells; assay: Growth, viable cell count; assay type: cell-based, human; settings: HL60, Nev 350 μM, 4 days
[3] = system: F9 teratocarcinoma cells; assay: Cell proliferation by cell counting; assay type: cell-based, murine; settings: 350 μM nevirapine, after 120 h of exposure
Description: NIH/3T3 embryo fibroblasts and F9 teratocarcinoma cells were cultured in DMEM containing 10-20% fetal serum and two concentrations of efavirenz, i.e. 10 and 20 μM, diluted from a stock solution (10 mM) in 100% DMSO. Cells were plated at a density of 2-5×10^4 in 35 mm Petri dishes and exposed to efavirenz 5-6 hours later. Samples were withdrawn at specific times and cells were counted in efavirenz-exposed compared to parallel non-exposed cell cultures.

[4] = system: C2C7 myogenic satellite cells; assay: Differentiation of C2C7 myogenic cells (myotube scoring, MHC immunofluorescence); assay type: cell-based, murine; settings: nevirapine pre-treatment, differentiation medium 48 h, anti-MHC IF
Excerpt: FIG. 4C, 60× magnification of myotubes in A. FIG. 4D, 60× magnification of myotubes in B. FIG. 4E, 60× magnification of MHC-positive myoblasts in the field in B.
Murine C2C7 myogenic satellite cells, which proliferate as mononucleated myoblasts can be induced to differentiate upon growth factor withdrawal and form multinucleated myotubes that express muscle-specific genes. […] By light-field microscopy scoring (n=300 cells from randomly selected fields), the ratio between multinucleated myotubes (i.e., cells with more than three nuclei) and mono/binucleated cells was about 1:1 in nevirapine-treated compared to 1:2 in untreated samples. Cells monolayers were further analyzed by immunofluorescence (IF) using a polyclonal antibody to myosin heavy chain (MHC), a late marker of muscle differentiation.

[5] = system: ascite tumor; assay: BALB/C mice inoculated with ascite tumor; assay type: in vivo; settings: nevirapine 1 mg/mouse/day intraperitoneally for seven days from day of inoculation; controls 5/5 tumor
Description: Procedure: 10 BALB/C mice were inoculated intraperitoneally (twice) with ascite tumor cells by injecting 0.2 ml of ascite withdrawn from an animal inoculated 8 days before. […] Mice were treated continuously with nevirapine for seven days.

[6] = system: NB4 cells; assay: NBT dye reduction assay; assay type: cell-based, human; settings: NB4, Nev 350 μM, 4 days
[7] = system: F9 cells; assay: Semi-quantitative RT-PCR of cell cycle regulatory genes; assay type: cell-based, murine; settings: nevirapine compared to non-exposed F9 cultures
Excerpt: FIG. 7B: Quantitative variations in gene expression. RT-PCR products hybridized with internal oligonucleotides were quantified by densitometry. […] Dark histograms represent the mean value, and light histograms the standard deviation, from at least three experiments for each gene. […] We examined a set of genes encoding D-type cyclins; growth inhibitors; modulators of apoptosis; and housekeeping proteins.

[8] = system: cyclin D1 in NIH/3T3; assay: Western immunoblotting of cyclin D1; assay type: cell-based, murine; settings: 72 h nevirapine vs non-exposed controls
Excerpt: (§1) FIG. 3A. Cell cycle analysis in control and nevirapine-exposed cells. […] In the U343 glioma cell line, the cell cycle was separately analysed in the diploid cell fraction (representing about ⅔ of all cells) and in the remaining fraction (about ⅓) which develops aneuploidy. FIG. 3B. […] The filter was reprobed with anti-actin antibody to control equal loading (lower panel).

[9] = system: Kasumi-1 cells; assay: NBT dye reduction assay; assay type: cell-based, human; settings: Kasumi-1, Nev 350 μM, 4 days
[10] = system: human acute myeloid leukemia (AML) cells; assay: NBT dye reduction assay, summary over Table 2; assay type: cell-based; settings: nevirapine treatment vs control (Table 2)
[11] = system: early mouse embryos; assay: Early mouse embryo cultures from in vitro fertilization (IVF) assays; settings: added to cultures of IVF embryos; preliminary studies
[12] = system: teratocarcinoma F9 cells; assay: Differentiation of F9 cells (morphology, collagen type IV immunofluorescence); assay type: cell-based, murine; settings: IF after 96 h
Description: After 96 h, samples were fixed and processed for IF of collagen type IV (α1) chain (FIG. 5c, FIG. 5g, FIG. 5k) and DAPI staining of nuclei (FIG. 5b, FIG. 5f, FIG. 5j); pictures are merged in FIG. 5d, FIG. 5h and FIG. 5l (100× objective).

[13] = system: HT-29 colon carcinoma cells; assay: Cell proliferation by cell counting; assay type: cell-based, human; settings: 350 μM nevirapine
Excerpt: (§2) Samples were withdrawn at specific times and cells were counted in nevirapine-exposed and control (DMSO-exposed) cultures. […] Saos-2 osteosarcoma cells were the most slowly responsive type, and only after 5 days of exposure did the growth rate begin to decrease compared to control cultures.

[14] = system: murine and human cell lines; assay: Cell proliferation by cell counting, all cell lines; assay type: cell-based; settings: 350 μM nevirapine vs DMSO control
Description: Cells were cultured with (dashed line) and without (DMSO, solid line) nevirapine. The proliferation rate is expressed as the ratio of counted cells at the indicated times relative to the initial number of seeded cells, taken as 1. Points represent the mean value and bars the standard deviation from at least three independent assays for all cell types.
as §2

[15] = system: Kasumi-1 cells; assay: Differentiation of AML cells poorly sensitive to RA; assay type: cell-based, human; settings: nevirapine treatment
[16] = system: MCF-7; assay: FACS cell cycle analysis; assay type: cell-based, human; settings: after 72 h of nevirapine treatment
Excerpt: as §1

[17] = system: HT-29; assay: FACS cell cycle analysis; assay type: cell-based, human; settings: after 72 h of nevirapine treatment
Excerpt: as §1

[18] = system: U343 Mg; assay: FACS cell cycle analysis; assay type: cell-based, human; settings: after 72 h of nevirapine treatment
Excerpt: as §1

Cc1ccnc2c1NC(=O)c1cccnc1N2C1CC1 [nevirapine, 5,11-dihydro-11-cyclopropyl-4-methyl-6H-dipyrido-[3,2-b:2′,3′-e][1,4]diazepin-6-one]
Viable cells N^0 × 10^5 [1]: 4.5 ± 0.9 × 10^5 | Viable cells N^0 × 10^5 [2]: 4.7 ± 1.1 × 10^5 | reduction in the proliferation rate [3]: 5 fold | myosin synthesis in isolated myoblasts [4]: already activated | treated animals remaining healthy with no evidence of tumor growth [5]: ⅗ | NBT+ (%) [6]: 37.2 ± 1.4% | Bcl-2 expression [7]: Up-regulation | Cyclin D3 expression [7]: down-regulated | Rb-2/p130 expression [7]: Up-regulation | cyclin D1 gene down-regulation [7]: 7 fold | expression of housekeeping genes (β-actin, GAPDH) [7]: unaffected | p16^INK4a up-regulation [7]: ~8 fold | p27^Kip1 expression [7]: Up-regulation | p53 expression [7]: unaffected | cyclin D1 levels [8]: substantial decrease | NBT+ (%) [9]: 31.2 ± 1.1% | increase in the number of positive cells in the NBT dye reduction assay [10]: 2.0-3.5 fold | development of early mouse embryos [11]: early and effective developmental arrest | synthesis of collagen type IV(α1) chain [12]: increased synthesis | effectiveness of proliferation suppression compared with F9 [13]: comparable effectiveness | rate of proliferation [14]: decreases the rate of proliferation in all cell lines | differentiation (morphological, functional, immunophenotypic) [15]: triggering differentiation | cells with a G0/G1 DNA content [16]: accumulated | cells with a G0/G1 DNA content [17]: accumulated | cells with a G0/G1 DNA content [18]: accumulated
